Measured values from BindingDB's records for doi:10.1021/jm00020a026 (University of Michigan, 1995).

Assay: antiviral activity in Human immunodeficiency virus-1 as reverse transcriptase activity in culture supernatant

## N#Cc1cn([C@@H]2O[C@H](CO)[C@@H](O)[C@@H]2F)c2ncnc(N)c12
  IC50: 12 µM

## N#Cc1cn([C@H]2O[C@H](CO)[C@@H](O)[C@@H]2F)c2ncnc(N)c12
  IC50: > 100 µM

## N#Cc1c(Br)n([C@H]2O[C@H](CO)[C@@H](O)[C@@H]2F)c2ncnc(N)c12
  IC50: 32 µM

## Cc1cn([C@H]2C[C@H](N=[N+]=[N-])[C@@H](CO)O2)c(=O)[nH]c1=O [1-((2R,4S,5S)-4-Azido-5-hydroxymethyl-tetrahydro-furan-2-yl)-5-methyl-1H-pyrimidine-2,4-dione]
  IC50: 0.011 µM

## NC(=S)c1cn(C2OC(CO)C(O)C2F)c2ncnc(N)c12 (stereo unspecified) [4-Amino-7-(3-fluoro-4-hydroxy-5-hydroxymethyl-tetrahydro-furan-2-yl)-7H-pyrrolo[2,3-d]pyrimidine-5-carbothioic acid amide]
  IC50: 0.07 µM

## NC(=O)c1cn(C2OC(CO)C(O)C2F)c2ncnc(N)c12 (stereo unspecified) [4-Amino-7-(3-fluoro-4-hydroxy-5-hydroxymethyl-tetrahydro-furan-2-yl)-7H-pyrrolo[2,3-d]pyrimidine-5-carboxylic acid amide]
  IC50: 0.02 µM
